The values that follow come from PMC3773398, “The Subcellular Localization of the Receptor for Platelet-Activating Factor in Neutrophils Affects Signaling and Activation Characteristics” (Clinical and Developmental Immunology, 2013).

In assay [1] the target is T1, PAFR (receptor for platelet-activating factor) (Homo sapiens, UniProt P25105).
T1 construct: gene PTAFR
Put plainly: antagonism of PAF ([…])-induced superoxide release in human neutrophils. The format is cell-based.

The target in assay [2] is T1, PAFR (receptor for platelet-activating factor). Briefly: agonist-induced superoxide release (isoluminol chemiluminescence) in human neutrophils, abolished by PAFR antagonist WEB2086; Ca2+ mobilization EC50 […]. The class given is cell-based.

T1 sequence (P25105 whole entry): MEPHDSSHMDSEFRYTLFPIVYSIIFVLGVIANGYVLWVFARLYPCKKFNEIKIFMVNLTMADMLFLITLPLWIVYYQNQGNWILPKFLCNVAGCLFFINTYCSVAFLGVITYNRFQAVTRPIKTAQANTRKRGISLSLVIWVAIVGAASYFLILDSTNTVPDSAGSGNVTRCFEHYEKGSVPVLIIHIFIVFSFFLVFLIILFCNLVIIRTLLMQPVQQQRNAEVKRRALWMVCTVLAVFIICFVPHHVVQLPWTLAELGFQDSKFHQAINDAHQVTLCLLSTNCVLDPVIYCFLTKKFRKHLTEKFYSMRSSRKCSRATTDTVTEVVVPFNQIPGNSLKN

For `Cc1nnc2n1-c1sc(CCC(=O)N3CCOCC3)cc1C(c1ccccc1Cl)=NC2` [WEB2086], the “antagonism of PAF (100 nM)-induced superoxide release in human neutrophils” value in assay [1] was “a specific PAFR antagonist (WEB2086) completely and selectively abolished the release of ROS upon PAF stimulation”.
The EC50 is the concentration giving half of the maximal effect. A lower EC50 goes with an effect from little substance. With `CCCCCCCCCCCCCCCCOC[C@H](COP(=O)([O-])OCC[N+](C)(C)C)OC(C)=O` [PAF], the EC50 in assay [2] is ~800 nM.
